Measurements published in patent US11667651B2, “Aminopyridine derivatives as phosphatidylinositol phosphate kinase inhibitors” (HiberCell, Inc., priority 2017, dated 2023).

How the values were obtained:
PIP4K2A = target: T1, PIP4K2A (Homo sapiens, UniProt P48426); assay: Kinase Assay PIP4K2 A (Table 2); assay type: biochemical; design: 4 nM PIP4K2A (full length protein, SignalChem); purchased SignalChem; conditions: compounds listed under IC50 bins
T1 sequence (P48426 1-406): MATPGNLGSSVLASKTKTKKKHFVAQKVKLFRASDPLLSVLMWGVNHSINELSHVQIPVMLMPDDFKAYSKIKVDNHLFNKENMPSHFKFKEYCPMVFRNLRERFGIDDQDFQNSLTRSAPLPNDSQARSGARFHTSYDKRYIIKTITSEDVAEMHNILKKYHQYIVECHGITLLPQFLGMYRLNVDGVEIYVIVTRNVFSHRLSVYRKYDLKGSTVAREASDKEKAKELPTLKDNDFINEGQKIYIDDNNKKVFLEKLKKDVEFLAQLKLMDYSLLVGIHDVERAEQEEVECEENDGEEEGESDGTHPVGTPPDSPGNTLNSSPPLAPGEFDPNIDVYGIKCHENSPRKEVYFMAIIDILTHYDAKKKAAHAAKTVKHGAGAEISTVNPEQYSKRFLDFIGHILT
Summary of the method: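 Full-length PIP4K2A (4 nM in the added mix, with 100 μM PI(5)P diC8) pre-incubated 15 min at RT with compounds (10-point, 3-fold series) in 20 mM MOPS pH 7.2, 25 mM MgCl2, 0.005% Tween 20. ATP added from a 60 μM solution, 1 h at RT; ADP-Glo luminescence, IC50 fitted from % inhibition versus DMSO.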

PIP4K2B = target: T2, PIP4K2B (Homo sapiens, UniProt P78356); assay: Trans-FI P kinase assay PIP4K2B (Table 4); assay type: biochemical; conditions: compounds listed under IC50 bins; read-out: Trans-FI P kinase assays: PIP4K2B IC50
T2 construct: made in house; host or cells: E. coli
T2 sequence (P78356 1-416): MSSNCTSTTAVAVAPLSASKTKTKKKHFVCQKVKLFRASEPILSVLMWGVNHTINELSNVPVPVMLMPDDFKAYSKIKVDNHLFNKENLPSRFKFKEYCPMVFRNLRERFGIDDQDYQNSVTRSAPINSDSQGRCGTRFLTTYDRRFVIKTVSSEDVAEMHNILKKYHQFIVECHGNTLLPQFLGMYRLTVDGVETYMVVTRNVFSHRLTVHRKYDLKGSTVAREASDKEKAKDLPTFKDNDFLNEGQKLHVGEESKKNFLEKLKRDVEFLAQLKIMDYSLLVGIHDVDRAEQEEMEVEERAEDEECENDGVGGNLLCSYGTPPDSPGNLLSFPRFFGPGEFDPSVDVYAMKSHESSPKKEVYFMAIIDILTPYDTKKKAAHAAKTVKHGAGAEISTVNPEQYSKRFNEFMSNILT
Description: GST tagged PIP4KtypeIIA and B enzymes were overexpressed in E. Coli and purified to >80% homogeneity. Phosphatidyl inositol-5-phosphate (PI5P, Cat. #850152, Avanti Polar Lipids Inc.) was used as the lipid substrate and phosphatidyl ethanolamine (DOPE 18:1, Cat. #850725, Avanti Polar Lipids Inc.) was used as the carrier lipid for assays. Ultrapure ATP and GTP was purchased from Bellbrooke Labs. ADP Glo reagents were obtained from Promega. Transcreener FI reagent was obtained from Bellbrooke labs.
GST-tagged PIP4KtypeIIB (3.4 μL, 2.77 mg/mL) was diluted to 5 mL using HNE buffer to yield 5× enzyme stock (25 nM)
Lipid Preparation: In a 10 mL pyrex glass vial, […] were suspended in 2.5 mL of HEPES buffer mix and 2.5 mL of H:E buffer. The contents were mixed and sonicated for 3 min to yield a translucent lipid stock.
Compound Preparation: Compounds were stored as 5 mM stocks in neat DMSO as room temperature in glass vials. 5 mM stocks were diluted to 2 mM and then serially diluted (3×) in neat DMSO in 96 well polypropylene plates. From the serially diluted stocks, 3 μL was delivered into 250 μL of 25% DMSO (in water) to generate 5× compound stocks. Typically, the highest compound conc. was 24 μM.
The assay volume was kept at 25 μL. To each well of the reaction plate, 10 μL of lipid stock (1:1 ratio PI5P:DOPE) was delivered. This was followed by the addition of 5 μL of compound in 25% DMSO. Then, to each well, 5 μL of 25 nM (5×) typeIIB enzyme was delivered. The contents were mixed well and incubated for 1 h at 27° C. After 1 h, reaction was initiated by adding 5 μL of 500 μM GTP and the contents were mixed well with a multi-channel pipetteman. The final concentration of the reagents are as follows: 50 mM HEPES, pH 7.3, 10 mM MgCl2, 20 mM NaCl, 0.01% v/v triton-X100, 5% DMSO, 100 μM GTP, 80 μM (2 μg) PI5P, 2 μg DOPE, and 5 nM PIP4KIIB Typically, the highest conc. of compounds was 4.8 μM and the lowest conc. was 0.
After 2 h, the reaction was quenched by adding 25 μL of transcreener FI reagent. The contents were incubated at rt for 1 h and the Fluorescence (Ex: 584 Em: 623) was read using Molecular Devices Paradigm plate reader. […] The blanks were averaged and subtracted from all other wells. Using a calibration curve, RFU was converted to μM GDP (product). IC50 was calculated by plotting the residual activity (expressed as % No inhibitor control) vs. log [Inh. conc.]

| SMILES | IC50 (PIP4K2A) | IC50 (PIP4K2B) |
| --- | --- | --- |
| CN(C)C(=O)c1ccc(-c2ccc(Nc3cnc4c(c3)NC(=O)CO4)nc2)cc1 [Example 88, N,N-dimethyl-4-(6-((2-oxo-2,3-dihydro-1H-pyrido[2,3-b][1,4]oxazin-7-yl)amino)pyridin-3-yl)benzamide] | 100 to 1000 nM | > 1000 nM |
| CN1CCN(c2nc(Nc3cnc4c(c3)N3C(=O)CC[C@H]3CO4)ncc2-c2ccc(N3CCCC3=O)cc2)CC1 [Example 281, (S)-2-((4-(4-methylpiperazin-1-yl)-5-(4-(2-oxopyrrolidin-1-yl)phenyl)pyrimidin-2-yl)amino)-6,6a,7,8-tetrahydro-9H-pyrido[2,3-b]pyrrolo[1,2-d][1,4]oxazin-9-one] | 1 to 10 nM | 10 to 100 nM |
| CC(C)c1nc(Nc2cnc3c(c2)N2C(=O)CC[C@H]2CO3)ncc1-c1ccc(N2CCCC2=O)cc1 [Example 215, (S)-2-((4-isopropyl-5-(4-(2-oxopyrrolidin-1-yl)phenyl)pyrimidin-2-yl)amino)-6,6a,7,8-tetrahydro-9H-pyrido[2,3-b]pyrrolo[1,2-d][1,4]oxazin-9-one] | ≤ 1 nM | 1 to 10 nM |
| O=C1CCCN1c1ccc(-c2cnc(Nc3cnc4c(c3)N3C(=O)CC[C@H]3CO4)cc2OC2CCC2)cc1 [Example 284, (S)-2-((4-cyclobutoxy-5-(4-(2-oxopyrrolidin-1-yl)phenyl)pyridin-2-yl)amino)-6,6a,7,8-tetrahydro-9H-pyrido[2,3-b]pyrrolo[1,2-d][1,4]oxazin-9-one] | ≤ 1 nM | 1 to 10 nM |
| COCc1nc(Nc2cnc3c(c2)N2C(=O)CC[C@H]2CO3)ncc1-c1ccc(C(=O)N(C)C)cc1 [Example 293, (S)-4-(4-(methoxymethyl)-2-((9-oxo-6a,7,8,9-tetrahydro-6H-pyrido[2,3-b]pyrrolo[1,2-d][1,4]oxazin-2-yl)amino)pyrimidin-5-yl)-N,N-dimethylbenzamide] | 10 to 100 nM | 10 to 100 nM |
| COC(=O)N1CCOc2ncc(Nc3ccc(-c4ccc(C(=O)N(C)C)cc4)cn3)cc21 [Example 93, methyl 7-((5-(4-(dimethylcarbamoyl)phenyl)pyridin-2-yl)amino)-2,3-dihydro-1H-pyrido[2,3-b][1,4]oxazine-1-carboxylate] | 1 to 10 nM | 10 to 100 nM |
| CC(=O)OC(C)C(=O)N1CCOc2ncc(Nc3ccc(-c4ccc(C(=O)N(C)C)cc4)cn3)cc21 (stereo not shown) [Example 91, 1-(7-((5-(4-(dimethylcarbamoyl)phenyl)pyridin-2-yl)amino)-2,3-dihydro-1H-pyrido[2,3-b][1,4]oxazin-1-yl)-1-oxopropan-2-yl acetate] | 10 to 100 nM | 10 to 100 nM |
| CN1CC2(CCN(c3ccc(Nc4cnc5c(c4)N4C(=O)CC[C@H]4CO5)nc3)CC2)OC1=O [Example 279, (S)-2-((5-(3-methyl-2-oxo-1-oxa-3,8-diazaspiro[4.5]decan-8-yl)pyridin-2-yl)amino)-6,6a,7,8-tetrahydro-9H-pyrido[2,3-b]pyrrolo[1,2-d][1,4]oxazin-9-one] | > 1000 nM | > 1000 nM |
| CN(C)C(=O)c1ccc(-c2ccc(Nc3cncc(N)c3)nc2)cc1 [Example 115, 4-(6-((5-aminopyridin-3-yl)amino)pyridin-3-yl)-N,N-dimethylbenzamide] | 100 to 1000 nM | > 1000 nM |
| COc1nc(Nc2cnc3c(c2)N2C(=O)CC[C@H]2CO3)ncc1-c1ccc(-c2nncn2C)cc1 [Example 287, (S)-2-((4-methoxy-5-(4-(4-methyl-4H-1,2,4-triazol-3-yl)phenyl)pyrimidin-2-yl)amino)-6,6a,7,8-tetrahydro-9H-pyrido[2,3-b]pyrrolo[1,2-d][1,4]oxazin-9-one] | 1 to 10 nM | 1 to 10 nM |
| CN1C[C@H]2COc3ncc(Nc4ccc(-c5ccc(N6CCCC6=O)cc5)cn4)cc3N2S1(=O)=O [Example 175, (S)-1-(4-(6-((2-methyl-1,1-dioxido-2,3,3a,4-tetrahydropyrido[2,3-b][1,2,5]thiadiazolo[2,3-d][1,4]oxazin-8-yl)amino)pyridin-3-yl)phenyl)pyrrolidin-2-one] | 100 to 1000 nM | 10 to 100 nM |
| COCc1nc(Nc2cnc3c(c2)N2C(=O)C4(CC4)C[C@H]2CO3)ncc1-c1ccc(N2CCCC2=O)cc1 [Example 202, (S)-2′-((4-(methoxymethyl)-5-(4-(2-oxopyrrolidin-1-yl)phenyl)pyrimidin-2-yl)amino)-6a′,7′-dihydro-6′H,9′H-spiro[cyclopropane-1,8′-pyrido[2,3-b]pyrrolo[1,2-d][1,4]oxazin]-9′-one] | 1 to 10 nM | 1 to 10 nM |
| Cc1cnnn1-c1ccc(-c2cnc(Nc3cnc4c(c3)N3C(=O)CC[C@H]3CO4)nc2C(C)C)cc1 [Example 278, (S)-2-((4-isopropyl-5-(4-(5-methyl-1H-1,2,3-triazol-1-yl)phenyl)pyrimidin-2-yl)amino)-6,6a,7,8-tetrahydro-9H-pyrido[2,3-b]pyrrolo[1,2-d][1,4]oxazin-9-one] | ≤ 1 nM | 1 to 10 nM |
| CN(C)C(=O)c1ccc(-c2ccc(Nc3cnc4c(c3)N(C(=O)C(C)(C)C)CCO4)nc2)cc1 [Example 97, N,N-dimethyl-4-(6-((1-pivaloyl-2,3-dihydro-1H-pyrido[2,3-b][1,4]oxazin-7-yl)amino)pyridin-3-yl)benzamide] | 1 to 10 nM | 10 to 100 nM |
| Cc1cnoc1-c1ccc(-c2ccc(Nc3cnc4c(c3)N3C(=O)CC[C@H]3CO4)nc2)cc1 [Example 277, (S)-2-((5-(4-(4-methylisoxazol-5-yl)phenyl)pyridin-2-yl)amino)-6,6a,7,8-tetrahydro-9H-pyrido[2,3-b]pyrrolo[1,2-d][1,4]oxazin-9-one] | 1 to 10 nM | 10 to 100 nM |
| COC1CN(c2nc(Nc3cnc4c(c3)N3C(=O)CC[C@H]3CO4)ncc2-c2ccc(N3CCCC3=O)cc2)C1 [Example 286, (S)-2-((4-(3-methoxyazetidin-1-yl)-5-(4-(2-oxopyrrolidin-1-yl)phenyl)pyrimidin-2-yl)amino)-6,6a,7,8-tetrahydro-9H-pyrido[2,3-b]pyrrolo[1,2-d][1,4]oxazin-9-one] | 1 to 10 nM | 1 to 10 nM |
| Cc1ccnnc1-c1ccc(-c2ccc(Nc3cnc4c(c3)N3C(=O)CC[C@H]3CO4)nc2)cc1 [Example 276, (S)-2-((5-(4-(4-methylpyridazin-3-yl)phenyl)pyridin-2-yl)amino)-6,6a,7,8-tetrahydro-9H-pyrido[2,3-b]pyrrolo[1,2-d][1,4]oxazin-9-one] | 1 to 10 nM | 1 to 10 nM |
